Test results reported in US7635788B2, “Alpha-amino acid derivatives with antiinflammatory activity” (Italfarmaco SpA, priority 2004, dated 2009).

Columns and labels:
[1] = system: human hepatoma cell line Hep-G2; experiment: Cytotoxicity towards tumour cells in vitro (Cell Titer 96 formazane colorimetric assay); assay type: cell-based; conditions: 48 h, percentage inhibition of the formation of formazane relative to the control
Protocol: The cytotoxicity of some compounds described in the preceding Examples was evaluated in vitro on human hepatoma cell line Hep-G2, by means of a commercial colorimetric method (Cell Titer 96® Aque ous One Solution Cell Proliferation Assay—Promega); the method determines the number of viable cells on the basis of their capacity to metabolise a tetrazolium salt producing formazane. The quantity of formazane produced is proportional to the number of viable cells.
The Hep-G2 cells are distributed 96 well microplates at a density of 4×10^4 cells/well (100 μl), in M199 medium containing 10% foetal bovine serum and supplements (complete medium).
After 24 hours' incubation (37° C., 5% CO2, 90% humidity), the cells are washed once and the medium is replenished with 200 μl of complete medium containing the substances to be tested at the final concentration of 10^−5, 10^−6 and 10^−7M. The test is performed in triplicate.
The plates are incubated for a further 48 h, at the end of which 100 μl of medium are removed and 20 μl/well of staining solution are added in accordance with the supplier's instructions. Optical density (λ=490 nm) is read after 1 hour's incubation at 37° C. using a plate reader (Victor2—Wallac Perkin Elmer).

[2] = system: TNFα production by peripheral blood mononucleocytes stimulated with LPS; experiment: Inhibition of TNFα production by human monocytes stimulated with LPS; assay type: cell-based; conditions: LPS 10 ng/ml, 24 hours, ELISA
Protocol: The compounds were dissolved in DMSO at a final concentration of 10 mM.
The solutions for the assay were prepared by diluting the mother solutions in RPMI 1640 with the addition of 1% FCS and 0.01% DMSO and were filtered with 0.2 μm filters.
The peripheral blood mononucleocytes were obtained from blood from healthy donors by separation in a Ficoll-Hypaque gradient [C. G. Figdor, et al. Blood, 1982, 60: 46-53]. The cells were sown in 96-well plates, at a concentration of approx. 500,000 cells per well, suspended in RPMI 1640 containing 1% FCS and were incubated at 37° C. in the presence of different concentrations (from 10^−6 to 10^−11M) of the compounds to be investigated. After 1 hour, LPS was added (at a final concentration of 10 ng/ml; obtained from E. coli 055:B5) and the plates were incubated at 37° C. for a further 24 hours. At the end of this period, the supernatants were collected and used for the determination of TNFα content by means of ELISA (DuoSet ELISA kit; R&D Systems, Minneapolis, Minn., USA).
The concentration of TNFα was calculated using a calibration curve and the IC50 values (the concentration which brings about 50% inhibition of the production of the cytokine) were calculated from the curve obtained by plotting the percentage inhibition values for each individual concentration of the compound under investigation.

O=C(NO)c1ccc(NC(=O)[C@H](Cc2ccc(-c3ccccc3)cc2)NC(=O)c2ccc3ccccc3c2)cc1 [Example 2y, N-[1(S)-(4-hydroxycarbamoyl-phenylcarbamoyl)-2-(biphenyl-4-yl)-ethyl]-amide of naphthalene-2-carboxylic acid]
Cytotoxicity at 10^−5 M [1]: 73.7%
Cytotoxicity at 10^−6 M [1]: 20.4%
IC50 [2]: 21.3 nM

O=C(NO)c1ccc(NC(=O)[C@H](Cc2ccccc2)NC(=O)c2ccc3ccccc3c2)cc1 [Example 2x, N-[1(S)-(4-hydroxycarbamoyl-phenylcarbamoyl)-2-phenyl-ethyl]-amide of naphthalene-2-carboxylic acid]
Cytotoxicity at 10^−5 M [1]: 77.3%
Cytotoxicity at 10^−6 M [1]: 15.3%
IC50 [2]: 8.6 nM

O=C(NO)c1ccc(NC(=O)[C@@H](Cc2ccc3ccccc3c2)NC(=O)c2ccccc2)cc1 [Example 1a, 4-(2(R)-Benzoylamino-3-naphthalen-2-yl-propionylamino)-N-hydroxy-benzamide]
Cytotoxicity at 10^−5 M [1]: 75.2%
Cytotoxicity at 10^−6 M [1]: 22.6%
IC50 ([2]; Monocyte): 3 nM

O=C(NO)c1ccc(NC(=O)[C@H](Cc2ccc(-c3ccccc3)cc2)NC(=O)c2ccccc2)cc1 [Example 2f, 4-(2(S)-Benzoylamino-3-biphenyl-4-yl-propionylamino)-N-hydroxy-benzamide]
Cytotoxicity at 10^−5 M [1]: 81.6%
Cytotoxicity at 10^−6 M [1]: 22.7%
IC50 ([2]; Monocyte): 72.1 nM

CC(=O)N[C@@H](Cc1ccccc1)C(=O)Nc1ccc(C(=O)NO)cc1 [Example 2e, 4-(2(S)-Acetylamino-3-phenyl-propionylamino)-N-hydroxy-benzamide]
Cytotoxicity at 10^−5 M [1]: 17.1%
Cytotoxicity at 10^−6 M [1]: 13.3%
IC50 ([2]; Monocyte): 12.5 nM

O=C(NO)c1ccc(NC(=O)[C@H](Cc2ccc(-c3ccccc3)cc2)NC(=O)c2cncc(Br)c2)cc1 [Example 2p, 5-Bromo-N-[1(S)-(4-hydroxycarbamoyl-phenylcarbamoyl)-2-biphenyl-4-yl-ethyl]-nicotinamide]
Cytotoxicity at 10^−5 M [1]: 61.7%
Cytotoxicity at 10^−6 M [1]: 10.5%
IC50 ([2]; Monocyte): 42 nM

O=C(NO)c1ccc(NC(=O)[C@@H](Cc2ccc3ccccc3c2)NC(=O)c2cncc(Br)c2)cc1 [Example 2n, 5-Bromo-N-[1(R)-(4-hydroxycarbamoyl-phenylcarbamoyl)-2-naphthalen-2-yl-ethyl]-nicotinamide]
Cytotoxicity at 10^−5 M [1]: 68.2%
Cytotoxicity at 10^−6 M [1]: 15.9%
IC50 ([2]; Monocyte): 6.8 nM

O=C(NO)c1ccc(NC(=O)[C@H](Cc2ccc(O)cc2)NC(=O)c2ccc3c(c2)OCO3)cc1 [Example 2s, N-[1(S)-(4-hydroxycarbamoyl-phenylcarbamoyl)-2-(4-hydroxy-phenyl)-ethyl]-amide of benzo[1,3]dioxole-5-carboxylic acid]
IC50 [2]: 1000 nM

O=C(NO)c1ccc(NC(=O)[C@H](Cc2ccc(C(F)(F)F)cc2)NC(=O)c2ccc3ccccc3c2)cc1 [Example 2w, N-[1(S)-(4-hydroxycarbamoyl-phenylcarbamoyl)-2-(4-trifluoromethyl-phenyl)-ethyl]-amide of naphthalene-2-carboxylic acid]
Cytotoxicity at 10^−5 M [1]: 65.7%
Cytotoxicity at 10^−6 M [1]: 25.3%
IC50 [2]: 23.7 nM

O=C(NO)c1ccc(NC(=O)[C@@H](Cc2ccc3ccccc3c2)NC(=O)c2ccc3c(c2)OCO3)cc1 [Example 2r, N-[1(R)-(4-hydroxycarbamoyl-phenylcarbamoyl)-2-naphthalen-2-yl-ethyl]-amide of benzo[1,3]dioxole-5-carboxylic acid]
Cytotoxicity at 10^−5 M [1]: 72.5%
Cytotoxicity at 10^−6 M [1]: 16.6%
IC50 [2]: 1.7 nM

CC(=O)N[C@@H](Cc1ccc2ccccc2c1)C(=O)Nc1ccc(C(=O)NO)cc1 [Example 2d, 4-(2(S)-Acetylamino-3-naphthalen-2-yl-propionylamino)-N-hydroxy-benzamide]
Cytotoxicity at 10^−5 M [1]: 56.2%
Cytotoxicity at 10^−6 M [1]: 9.6%
IC50 ([2]; Monocyte): 4.4 nM

Nc1ccc(C(=O)N[C@H](Cc2ccc3ccccc3c2)C(=O)Nc2ccc(C(=O)NO)cc2)cc1 [Example 2l, 4-Amino-N-[1(R)-(4-hydroxycarbamoyl-phenylcarbamoyl)-2-naphthalen-2-yl-ethyl]-benzamide]
Cytotoxicity at 10^−5 M [1]: 61.9%
Cytotoxicity at 10^−6 M [1]: 14.4%
IC50 ([2]; Monocyte): 29.6 nM

O=C(NO)c1ccc(NC(=O)[C@H](Cc2ccccc2)NC(=O)c2ccccc2)cc1 [Example 2h, 4-(2(S)-Benzoylamino-3-phenyl-propionylamino)-N-hydroxy-benzamide]
Cytotoxicity at 10^−5 M [1]: 77.4%
Cytotoxicity at 10^−6 M [1]: 31.2%
IC50 ([2]; Monocyte): 11.3 nM

O=C(NO)c1ccc(NC(=O)[C@H](Cc2ccc3ccccc3c2)NC(=O)c2ccccc2)cc1 [Example 2g, 4-(2(S)-Benzoylamino-3-naphthalen-2-yl-propionylamino)-N-hydroxy-benzamide]
Cytotoxicity at 10^−5 M [1]: 76.5%
Cytotoxicity at 10^−6 M [1]: 43.2%
IC50 ([2]; Monocyte): 6.1 nM

O=C(NO)c1ccc(NC(=O)[C@H](Cc2cccc(F)c2)NC(=O)c2ccc3c(c2)OCO3)cc1 [Example 2u, N-[1(S)-(4-hydroxycarbamoyl-phenylcarbamoyl)-2-(3-fluoro-phenyl)-ethyl]-amide of benzo[1,3]dioxole-5-carboxylic acid]
Cytotoxicity at 10^−5 M [1]: 62.9%
Cytotoxicity at 10^−6 M [1]: 12.9%
IC50 [2]: 6.8 nM

CC(=O)N[C@@H](Cc1ccc(O)cc1)C(=O)Nc1ccc(C(=O)NO)cc1 [Example 2i, 4-[2(S)-Acetylamino-3-(4-hydroxy-phenyl)-propionylamino]-N-hydroxy-benzamide]
Cytotoxicity at 10^−5 M [1]: 12.2%
Cytotoxicity at 10^−6 M [1]: 15.7%
IC50 ([2]; Monocyte): 13.3 nM

O=C(NO)c1ccc(NC(=O)[C@@H](Cc2ccc3ccccc3c2)NC(=O)c2ccc3ccccc3c2)cc1 [Example 2v, N-[1(R)-(4-hydroxycarbamoyl-phenylcarbamoyl)-2-naphthalen-2-yl-ethyl]-amide of naphthalene-2-carboxylic acid]
Cytotoxicity at 10^−5 M [1]: 69.4%
Cytotoxicity at 10^−6 M [1]: 11.8%
IC50 [2]: 16.8 nM

Nc1ccc(C(=O)N[C@@H](Cc2ccc3ccccc3c2)C(=O)Nc2ccc(C(=O)NO)cc2)cc1 [Example 2m, 4-Amino-N-[1(S)-(4-hydroxycarbamoyl-phenylcarbamoyl)-2-naphthalen-2-yl-ethyl]-benzamide]
Cytotoxicity at 10^−5 M [1]: 72.4%
Cytotoxicity at 10^−6 M [1]: 24.5%
IC50 ([2]; Monocyte): 26.7 nM

CC(=O)N[C@H](C(=O)Nc1ccc(C(=O)NO)cc1)C1Cc2ccccc2C1 [Example 2c, 4-(2(S)-Acetylamino-2-indan-2-yl-acetylamino)-N-hydroxy-benzamide]
Cytotoxicity at 10^−5 M [1]: 78.3%
Cytotoxicity at 10^−6 M [1]: 28.5%
IC50 ([2]; Monocyte): 55.9 nM

O=C(NO)c1ccc(NC(=O)[C@H](Cc2ccc3ccccc3c2)NC(=O)c2cncc(Br)c2)cc1 [Example 2q, 5-Bromo-N-[1(S)-(4-hydroxycarbamoyl-phenylcarbamoyl)-2-naphthalen-2-yl-ethyl]-nicotinamide]
Cytotoxicity at 10^−5 M [1]: 53.9%
Cytotoxicity at 10^−6 M [1]: 11.7%
IC50 ([2]; Monocyte): 22.9 nM

O=C(NO)c1ccc(NC(=O)[C@H](Cc2ccc(C(F)(F)F)cc2)NC(=O)c2cncc(Br)c2)cc1 [Example 2o, 5-Bromo-N-[1(S)-(4-hydroxycarbamoyl-phenylcarbamoyl)-2-(4-trifluoromethyl-phenyl)-ethyl]-nicotinamide]
Cytotoxicity at 10^−5 M [1]: 72.4%
Cytotoxicity at 10^−6 M [1]: 34.8%
IC50 ([2]; Monocyte): 200 nM
